{"source": "patent US7498336B2", "about": "“Deazaflavin compounds and methods of use thereof” (The United States of America as represented by the …, priority 2003, dated 2009)", "key": {"[1]": {"test_system": "Normal human fibroblast MRC-5", "assay": "Cell based assay for accumulation of MDM2 and p53 (immunoblot)", "conditions": "MRC-5 cells, 50 μM, 8 hours", "method": "Methods: Normal human fibroblast MRC-5 were chosen to determine whether the compounds from the high throughput screening can inhibit the E3 activity of Mdm2, i.e. stabilizing MDM2 and p53 in vivo. After being seeded in 12-well tissue culture cluster overnight, the cells were treated with 50 μM of the compounds for 8 hours. They were harvested with trypsin-EDTA, washed with PBS, and lysed with RIPA buffer. Following removal of insoluble pellet by centrifugation for 20 minutes at 10000 rpm, the lysate was separated on 4-20% gradient SDS-polyacrylamide gel and transferred onto nitrocellulose membrane. The membrane was then blotted with anti-p53 antibody (DO-1), anti-MDM2 antibodies (Ab-1 and Ab-2), anti-p27 (Santa Cruz), anti-Nedd4, and anti-p21Waf1 antibody. After extensive washing with PBS containing 0.5% Triton X-100, it was incubated with HRP-labeled donkey anti-mouse antibody and visualized using enhanced chemiluminescence."}, "[2]": {"test_system": "E1A-transformed RPE cells", "assay": "Apoptosis in E1A-transformed RPE cells", "type": "cell-based, human", "conditions": "FIG. 4 left", "description": "Cell-based assays include model systems where primary human epithelial cells (“normal cells”) are compared to the same cells expressing the adenovirus E1A oncogene (“transformed cells”). Activation of p53 was not toxic to normal cells, but activation of p53 in transformed cells induces p53-mediated apoptosis. High concentrations of wild type (wt) p53 protein can induce apoptosis in a variety of different tumor cells. Potential inhibitors of MDM2 would regulate the stability and function of p53 and MDM2. Preferably the assays measure number of cells undergoing apoptosis due to MDM2 induced p53 degradation in tumor cells in the presence or absence of candidate compounds as compared to normal cells in the presence or absence of candidate compounds. An increase in the number of these cells undergoing apoptosis in the presence of candidate compounds in tumor cells, as compared to normal untreated cells is indicative of a potential anti-tumor compound. […]\nApoptosis and cell death were determined by FACS analysis of sub-G1 nuclei or counting trypan blue-positive cells under microscope. Caspase activity was measured using fluorogenic substrate Ac-DEVD-AFC and CytoFluor multi-well plate reader (PerSeptive Biosystems). […]"}}, "data": [{"smiles": "COc1cccc2c1C(=O)c1c(O)c3c(c(O)c1C2=O)C[C@@](O)(C(=O)CO)C[C@@H]3O[C@H]1C[C@H](N)[C@H](O)[C@H](C)O1", "note": "[adriamycin, reference compound]", "values": [{"measurement": "p53 level", "setting": "[1]", "value": "increased only p53"}, {"measurement": "apoptosis", "setting": "[2]", "value": "markedly increased apoptosis"}]}]}
